Results as given in patent US12503476B2, “Ring-fused 2-pyridone compounds, methods for preparation thereof and their use in the treatment and/or prevention of a disease involving gram-positive bacteria” (QURETECH BIO AB, priority 2020, dated 2025).
In brackets after ≈: the same amount, converted by molar mass. Read-outs that look alike come from different tables or passages of the source.

Key:
MRSA [1] = assay: Minimum Inhibitory Concentration (MIC) assay, MRSA; type: cell-based, Methicillin-resistant Staphylococcus aureus; conditions: Staphylococcus aureus, MRSA, 24 h, Table 3, compound alone, no antibiotic, 37° C., OD600, first figure of MIC/MBC, n.d. = activity not observed at the concentrations tested, read-out: MIC for MRSA
Experimental: (§1) The cultures (200 μl) were incubated at 37° C. for 24 h. […] The MIC was measured in micromolar concentration, i.e. μM. Objectively, this was determined by measuring the optical density (i.e. OD) of the test cultures at 600 nm using a spectrophotometer. As used herein, OD600 stands for optical density at a wavelength of 600 nm (i.e. 600 nanometers).

E. faecalis OG1RF = assay: Combined activity with gentamicin, vancomycin or ampicillin, E. faecalis OG1RF; type: cell-based, Enterococcus faecalis; conditions: for OD600 at 24 h when combined with gentamicin / Synergistic effect when combined with gentamicin: compound 1 μM; for OD600 at 24 h when combined with gentamicin / Synergistic effect when combined with gentamicin / E. faecalis activity, combination with gentamicin compared to gentamicin alone, compound alone and comparative example alone / E. faecalis activity, combination with gentamicin compared to the combination of the comparative example and gentamicin: gentamicin 16 μg/ml; for Synergistic effect when combined with gentamicin: 24 h, n.d. = activity not observed; for E. faecalis activity, combination with gentamicin compared to gentamicin alone, compound alone and comparative example alone / E. faecalis activity, combination with gentamicin compared to the combination of the comparative example and gentamicin / E. faecalis activity, combination with vancomycin compared to vancomycin alone or compound alone: subinhibitory compound 1-4 μM, OD600 24 h; for E. faecalis activity, combination with vancomycin compared to vancomycin alone or compound alone: vancomycin 1 μg/ml
Experimental: (§2) […]. The concentrations used in the experiments with E. faecalis OG1RF were 16 μg/ml gentamicin, 1 μg/ml vancomycin or 1 μg/ml ampicillin. In experiments where combinations were tested against MRSA 1369, 0.05 μg/ml gentamicin, 1 μg/ml vancomycin or 16 μg/ml ampicillin was used.
(§3) Bacterial cultures (190 μl) at a starting OD=0.001 at OD600 were incubated together with either subinhibitory concentrations of gentamicin/vancomycin/ampicillin or compound alone, or a combination of the two. The cultures (200 μl) were incubated at 37° C. for 24 h. A control sample without compound and gentamicin/vancomycin/ampicillin but containing compound vehicle (DMSO) and gentamicin/vancomycin/ampicillin vehicle (MQ water) was performed the same way. After 24 h, the effect on bacterial growth compared to untreated control samples was determined by measuring optical density at 600 nm with a spectrophotometer.
[…]. MIC/MBC values for the compounds administered alone are also shown for comparison. Unless otherwise stated, the compound was provided in a concentration of 1 μM.

MRSA 1369 = assay: Combined activity with gentamicin, vancomycin or ampicillin, MRSA 1369; type: cell-based, Methicillin-resistant Staphylococcus aureus; conditions: subinhibitory compound 1-4 μM, OD600 24 h; for MRSA activity, combination with ampicillin compared to ampicillin alone or compound alone: ampicillin 16 μg/ml; for MRSA activity, combination with vancomycin compared to vancomycin alone or compound alone: vancomycin 1 μg/ml
Experimental: as §2, §3

MRSA [2] = assay: Minimum Bactericidal Concentration (MBC) assay, MRSA; conditions: Staphylococcus aureus, MRSA, read-out: MBC for MRSA, Table 3; compound alone, no antibiotic; MIC cultures plated on BHI; second figure of MIC/MBC; n.d. = activity not observed at the concentrations tested
E. faecalis [3] = assay: Minimum Inhibitory Concentration (MIC) assay, E. faecalis; type: cell-based, Enterococcus faecalis; conditions: for MIC: Enterococcus faecalis, first figure of MIC/MBC, read-out: MIC for E. faecalis; for Growth inhibition of the pathogen of interest compared to the compound of Example 14 in WO 2018/229141: conclusion from Table 3 (E. faecalis and MRSA)
Experimental: as §1

E. faecalis [4] = assay: Minimum Bactericidal Concentration (MBC) assay, E. faecalis; conditions: Enterococcus faecalis, read-out: MBC for E. faecalis
[5] = 24 h, Table 3, compound alone, no antibiotic, 24 h, 37° C., OD600, n.d. = activity not observed at the concentrations tested
[6] = Table 4, compound administered alone, n.d. = activity not observed

MIC (MRSA [1])	MIC (E. faecalis [3]; [5])	MIC (E. faecalis [3]; [6])	Compound	OD600 at 24 h when combined with gentamicin (E. faecalis OG1RF)	Synergistic effect when combined with gentamicin (E. faecalis OG1RF)	E. faecalis activity, combination with gentamicin compared to gentamicin alone, compound alone and comparative example alone (E. faecalis OG1RF)	E. faecalis activity, combination with gentamicin compared to the combination of the comparative example and gentamicin (E. faecalis OG1RF)	MRSA activity, combination with ampicillin compared to ampicillin alone or compound alone (MRSA 1369)	MRSA activity, combination with vancomycin compared to vancomycin alone or compound alone (MRSA 1369)	MBC (MRSA [2])	Growth inhibition of the pathogen of interest compared to the compound of Example 14 in WO 2018/229141 (E. faecalis [3]; compound alone)	MBC (E. faecalis [4])	E. faecalis activity, combination with vancomycin compared to vancomycin alone or compound alone (E. faecalis OG1RF)	MRSA activity, combination with gentamicin compared to gentamicin alone or compound alone (MRSA 1369; gentamicin 0.05 μg/ml)
2 µM (≈ 1.1 µg/mL)	3 µM (≈ 1.65 µg/mL)	3 µM (≈ 1.65 µg/mL)	O=C(O)C12C[C@@H](c3cc(Cl)cc(Cl)c3)C1Sc1c(C3CC3)c(Cc3cccc4ccccc34)cc(=O)n12 (some centres unmarked) [Example 15]	OD600 = 0	Yes	much larger extent	much larger extent	much larger extent	much larger extent	4 µM (≈ 2.19 µg/mL)	substantially similar extent or to a higher extent	–	–	–
3 µM (≈ 1.52 µg/mL)	5 µM (≈ 2.54 µg/mL)	5 µM (≈ 2.54 µg/mL)	Cc1cc(C)cc([C@@H]2CC3(C(=O)O)C2Sc2c(C4CC4)c(Cc4cccc5ccccc45)cc(=O)n23)c1 (some centres unmarked) [Example 21]	OD600 = 0.1	Yes	much larger extent	–	–	–	7.5 µM (≈ 3.81 µg/mL)	substantially similar extent or to a higher extent	25 µM (≈ 12.7 µg/mL)	–	–
5 µM (≈ 2.6 µg/mL)	5 µM (≈ 2.6 µg/mL)	–	O=C(O)C12C[C@@H](c3cccc(Cl)c3)C1Sc1c(C3CC3)c(Cc3cc4ccccc4s3)cc(=O)n12 (some centres unmarked) [Example 30]	–	–	much larger extent	much larger extent	–	much larger extent	–	–	–	much larger extent	much larger extent
5 µM (≈ 2.74 µg/mL)	5 µM (≈ 2.74 µg/mL)	–	O=C(O)C12C[C@@H](c3c(Cl)cccc3Cl)C1Sc1c(C3CC3)c(Cc3cccc4ccccc34)cc(=O)n12 (some centres unmarked) [Example 33]	–	–	much larger extent	much larger extent	much larger extent	much larger extent	–	substantially similar extent or to a higher extent	–	much larger extent	–
